# Reference: US20210238225A1, “PEPTIDOMIMETIC INHIBITORS OF THE PEPTIDYL-PROLYL CIS/TRANS ISOMERASE (PIN1)” (DANA-FARBER CANCER INSTITUTE, INC., priority 2018, published 2021)
# Where two headings read alike, the source gives them in different places. Non-standard residues stand in square brackets, D forms with d. Residues, ends and D or L forms follow the SMILES beside them. *: point of attachment. Ala(4-thiazolyl) = N[C@@H](Cc1cscn1)C(=O)O; Phe(4-F) = N[C@@H](Cc1ccc(F)cc1)C(=O)O; 2Nal = N[C@@H](Cc1ccc2ccccc2c1)C(=O)O; X2 = C[C@H]1NC(=O)N[C@H]1CCCCCC(=O)*; NH(4-Me-benzyl) = Cc1ccc(CN*)cc1; NMeF = CN[C@@H](Cc1ccccc1)C(=O)O; Cit = NC(=O)NCCC[C@H](N)C(=O)O; Pip = O=C(O)[C@@H]1CCCCN1; NHcBu = C1CC(N*)C1; NHtBu = CC(C)(C)N*; ClAc = O=C(CCl)*
# Columns and labels:
# [1] = molecular target: Pin1 (GST-Pin1) (Homo sapiens, UniProt Q13526); experiment: Fluorescence polarization (FP) assay, binding to Pin1
# [2] = molecular target: T1, Pin1 (Homo sapiens, UniProt Q13526); experiment: Cellular target engagement, live cell biotin competition assay in TNBC MDA-MB-231 cells; format: cell-based; design: endogenous in cells; host or cells: MDA-MB-231; conditions: TNBC MDA-MB-231 cells; for Cellular Target Engagement?: 5 hours treatment, concentration under E7; for Cellular Target Engagement? concentration stated for complete engagement: read with the E6 line
# Protocol: TNBC MDA-MB-231 cells were plated in 10 cm plates with 2.5 million cells per plate in 6 mL of media. The day after plating, cells were treated with the indicated concentrations of compound 18 for 5 hours. The cells were washed 2× with 0.9% NaCl (1 mL per 10 cm plate), and collected by scraping with a cell scraper. Cells were lysed in lysis buffer (50 mM Hepes pH 7.5, 150 mM NaCl, 1 mM EDTA, 10% v/v glycerol, 0.5% v/v […], protease inhibitors (Roche)) using 210 μL of cell lysis buffer per 10 cm plate of cells. After clarifying by centrifugation (14,000 rpm for 15 min at 4° C.), 5 μL of each lysate sample was combined with 5 μL of 2× LDS+10% β-mercaptoethanol, boiled for 5 minutes, and set aside for the input loading control (later to be loaded directly in the gel). Then, 200 μL of each lysate was then incubated with 1 μM of compound 2-32 (biotin probe compound) for 1 hour at 4° C. Lysates were then incubated with streptavidin agarose resin (30 μL of 1:1 beads: lysis buffer slurry) (Thermo Scientific™, cat. #20349) for 2 hours at 4° C. Beads were washed 4 times with 500 μL of washing buffer (50 mM Hepes, pH7.5, 10 mM NaCl, 1 mM EDTA, 10% glycerol), then pelleted by centrifugation and dried. The beads were then boiled at 95° C. for 5 minutes in 30 μL of 2× LDS+10% β-mercaptoethanol. Lysates were probed for specified proteins by western blotting using the Bolt system (Life Technologies™).
# [3] = molecular target: T1, Pin1; experiment: Lysate target engagement (pull down with biotinylated probes; competition assay); format: binding; design: endogenous in cells; host or cells: MDA-MB-231
# Protocol: (§1) TNBC-MDA-MB-231 cells were lysed in lysis buffer (50 mM Hepes pH 7.5, 150 mM NaCl, 1 mM ethylenediaminetetraacetic acid (EDTA), 10% v/v glycerol, 0.5% v/v NP-40, protease inhibitors (Roche)). After clarifying by centrifugation (14,000 rpm for 15 min at 4° C.), lysates were incubated with the indicated concentrations of candidate compound for 1 hour at 4° C. (500 μg of protein per sample, as determined by BCA). Lysates were then incubated with streptavidin agarose resin (30 μL of 1:1 beads: lysis buffer slurry) (Thermo Scientific™, cat. #20349) for 2 hours at 4° C. Beads were washed 4 times with 500 μL of washing buffer (50 mM Hepes, pH 7.5, 10 mM NaCl, 1 mM EDTA, 10% glycerol), then pelleted by centrifugation and dried. The beads were then boiled at 95° C. for 5 minutes in 30 μL of 2× LDS+10% β-mercaptoethanol. Lysates were probed for specified proteins by western blotting using the Bolt system (Life Technologies™).
# as §1, with “mM EDTA,” for “mM ethylenediaminetetraacetic acid (EDTA),”, “by centrifugation,” for “by centrifugation (14,000 rpm for 15 min at 4° C.),”, “were pre-incubated” for “were incubated”, “of” for “of candidate”, “compound 18 overnight” for “compound for 1 hour”, “BCA). The lysates were then incubated with 1 μM of compound 2c (desthiobiotin probe) for 1 hour at 4° C.” for “BCA).”
# [4] = competition with fluorescein-labeled peptide probe, 12 hours pre-incubation at 4° C., Kenakin Ki equation, read-out: Ki, μM (FP Assay)
# [5] = Ki, μM (FP Assay), competition with fluorescein-labeled peptide probe, 12 hours pre-incubation at 4° C., Kenakin Ki equation
# Chain of Pin1 (GST-Pin1) (Q13526 whole entry): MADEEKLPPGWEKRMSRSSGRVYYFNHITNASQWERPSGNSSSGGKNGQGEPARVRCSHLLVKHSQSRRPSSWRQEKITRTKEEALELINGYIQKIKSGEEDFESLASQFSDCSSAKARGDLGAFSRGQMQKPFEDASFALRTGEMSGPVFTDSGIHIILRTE
# T1 sequence (Q13526 whole entry): as above
Compound,"Ki [1, 4] [µM]",Cellular Target Engagement? [2],"Ki [1, 5] [µM]",also measured
"NC(=O)[C@H](Cc1ccc(O)cc1)NC(=O)[C@H](Cc1ccc2ccccc2c1)NC(=O)[C@@H]1CCCCN1C(=O)[C@H](CCC(=O)O)NC(=O)CCl [Compound 2-6, (S)-5-((S)-2-(((S)-1-(((S)-1-Amino-3-(4-hydroxyphenyl)-1-oxopropan-2-yl)amino)-3-(naphthalen-2-yl)-1-oxopropan-2-yl)carbamoyl)piperidin-1-yl)-4-(2-chloroacetamido)-5-oxopentanoic acid] (ClAc-E[Pip][2Nal]Y-NH2)",0.28,No,,
"C[C@H]1NC(=O)N[C@H]1CCCCCC(=O)NCCCC[C@H](NC(=O)[C@H](CCCNC(N)=O)NC(=O)[C@H](Cc1c[nH]c2ccccc12)NC(=O)[C@@H]1CCCCN1C(=O)[C@H](Cc1ccccc1)N(C)C(=O)CCl)C(N)=O [Compound 2c, (S)—N—((S)-1-(((S)-1-(((S)-1-Amino-6-(6-((4S,5R)-5-methyl-2-oxoimidazolidin-4-yl)hexanamido)-1-oxohexan-2-yl)amino)-1-oxo-5-ureidopentan-2-yl)amino)-3-(1H-indol-3-yl)-1-oxopropan-2-yl)-1-(N-(2-chloroacetyl)-N-methyl-L-phenylalanyl)-piperidine-2-carboxamide] (ClAc-[NMeF][Pip]W[Cit]K(X2)-NH2)",,,,"Ki ([1]; Ki quoted in figure legend, assay not named): 0.015 µM; Lysate Target Engagement? ([3]; TNBC-MDA-MB-231 lysate, biotin/dtb probes: pull down, others: competition, concentration under E5): Yes-(dtb; Lysate Target Engagement? concentration stated for the engagement or pull down ([3]; read with the E4 line of the same compound (complete, partial, probe pull down)): at 0.5 μM"
"Cc1ccc(CNC(=O)[C@H](CCCNC(N)=O)NC(=O)[C@H](Cc2c[nH]c3ccccc23)NC(=O)[C@@H]2CCCCN2C(=O)[C@H](Cc2ccccc2)N(C)C(=O)CCl)cc1 [Compound 11, (S)—N—((S)-3-(1H-indol-3-yl)-1-(((S)-1-((4-methylbenzyl)amino)-1-oxo-5-ureidopentan-2-yl)amino)-1-oxopropan-2-yl)-1-(N-(2-chloroacetyl)-N-methyl-L-phenylalanyl)piperidine-2-carboxamide] (ClAc-[NMeF][Pip]W[Cit]-{NH(4-Me-benzyl)})",0.01,Yes-,,Cellular Target Engagement? concentration stated for complete engagement [2]: at 5 μM
"COC(=O)CC[C@H](NC(=O)CCl)C(=O)N1CCCC[C@H]1C(=O)N[C@@H](Cc1c[nH]c2ccccc12)C(=O)N[C@@H](Cc1ccc(F)cc1)C(=O)NCc1ccc(C)cc1 [Compound 11-3, Methyl (S)-4-(2-chloroacetamido)-5-((S)-2-(((S)-1-(((S)-3-(4-fluorophenyl)-1-((4-methylbenzyl)amino)-1-oxopropan-2-yl)amino)-3-(1H-indol-3-yl)-1-oxopropan-2-yl)carbamoyl)piperidin-1-yl)-5-oxopentanoate] (ClAc-E(OMe)[Pip]W[Phe(4-F)]-{NH(4-Me-benzyl)})",,Yes-Complete,0.19,Cellular Target Engagement? concentration stated for complete engagement [2]: at 15 μM
"COC(=O)CC[C@H](NC(=O)CCl)C(=O)N1CCCC[C@H]1C(=O)N[C@@H](Cc1c[nH]c2ccccc12)C(=O)N[C@@H](CCCNC(N)=O)C(=O)NCc1ccc(C)cc1 [Compound 11-4, Methyl (S)-5-((S)-2-(((S)-3-(1H-indol-3-yl)-1-(((S)-1-((4-methylbenzyl)amino)-1-oxo-5-ureidopentan-2-yl)amino)-1-oxopropan-2-yl)carbamoyl)piperidin-1-yl)-4-(2-chloroacetamido)-5-oxopentanoate] (ClAc-E(OMe)[Pip]W[Cit]-{NH(4-Me-benzyl)})",,No,0.03,
"Cc1ccc(CNC(=O)[C@H](Cc2ccc(F)cc2)NC(=O)[C@H](Cc2c[nH]c3ccccc23)NC(=O)[C@@H]2CCCCN2C(=O)[C@H](CCC(=O)O)NC(=O)CCl)cc1 [Compound 11-5, (S)-4-(2-chloroacetamido)-5-((S)-2-(((S)-1-(((S)-3-(4-fluorophenyl)-1-((4-methylbenzyl)amino)-1-oxopropan-2-yl)amino)-3-(1H-indol-3-yl)-1-oxopropan-2-yl)carbamoyl)piperidin-1-yl)-5-oxopentanoic acid] (ClAc-E[Pip]W[Phe(4-F)]-{NH(4-Me-benzyl)})",0.13,No,,
"Cc1ccc(CNC(=O)[C@H](CCCNC(N)=O)NC(=O)[C@H](Cc2c[nH]c3ccccc23)NC(=O)[C@@H]2CCCCN2C(=O)[C@H](CCC(=O)O)NC(=O)CCl)cc1 [Compound 11-6, (S)-5-((S)-2-(((S)-3-(1H-indol-3-yl)-1-(((S)-1-((4-methylbenzyl)amino)-1-oxo-5-ureidopentan-2-yl)amino)-1-oxopropan-2-yl)carbamoyl)piperidin-1-yl)-4-(2-chloroacetamido)-5-oxopentanoic acid] (ClAc-E[Pip]W[Cit]-{NH(4-Me-benzyl)})",0.01,No,,
"COC(=O)CC[C@H](NC(=O)CCl)C(=O)N1CCCC[C@H]1C(=O)N[C@@H](Cc1c[nH]c2ccccc12)C(=O)N[C@@H](Cc1ccc(F)cc1)C(=O)NC(C)(C)C [Compound 11-18, Methyl (S)-5-((S)-2-(((S)-1-(((S)-1-(tert-butylamino)-3-(4-fluorophenyl)-1-oxopropan-2-yl)amino)-3-(1H-indol-3-yl)-1-oxopropan-2-yl)carbamoyl)piperidin-1-yl)-4-(2-chloroacetamido)-5-oxopentanoate] (ClAc-E(OMe)[Pip]W[Phe(4-F)]-NHtBu)",,No,0.134,
"COC(=O)CC[C@H](NC(=O)CCl)C(=O)N1CCCC[C@H]1C(=O)N[C@@H](Cc1c[nH]c2ccccc12)C(=O)N[C@@H](Cc1ccc(F)cc1)C(=O)NC1CCC1 [Compound 11-19, Methyl (S)-4-(2-chloroacetamido)-5-((S)-2-(((S)-1-(((S)-1-(cyclobutylamino)-3-(4-fluorophenyl)-1-oxopropan-2-yl)amino)-3-(1H-indol-3-yl)-1-oxopropan-2-yl)carbamoyl)piperidin-1-yl)-5-oxopentanoate] (ClAc-E(OMe)[Pip]W[Phe(4-F)]-NHcBu)",,No,0.146,
"COC(=O)CC[C@H](NC(=O)CCl)C(=O)N1CCCC[C@H]1C(=O)N[C@@H](Cc1c[nH]c2ccccc12)C(=O)N[C@@H](Cc1cscn1)C(=O)NCc1ccc(C)cc1 [Compound 11-28, Methyl (S)-5-((S)-2-(((S)-3-(1H-indol-3-yl)-1-(((S)-1-((4-methylbenzyl)amino)-1-oxo-3-(thiazol-4-yl)propan-2-yl)amino)-1-oxopropan-2-yl)carbamoyl)piperidin-1-yl)-4-(2-chloroacetamido)-5-oxopentanoate] (ClAc-E(OMe)[Pip]W[Ala(4-thiazolyl)]-{NH(4-Me-benzyl)})",,No,0.099,
